Test results: ChEMBL document CHEMBL5252628, “Novel xanthone antibacterials: Semi-synthesis, biological evaluation, and the action mechanisms” (Bioorg Med Chem, 2023)
Values after ≈ are worked out from the molar mass of the structure shown. Active and inactive are the calls of the source. The calls are words filed in the database; no cut-off is given here.

Tests used:
Escherichia coli = assay: Antibacterial activity against Escherichia coli ATCC 25922 assessed as inhibition of bacterial growth incubated for 18 to 24 hrs by broth microdilution assay; type: functional; conditions: time 18-24 hrs
Staphylococcus aureus [1] = assay: Antibacterial activity against methicillin-resistant Staphylococcus aureus 2 assessed as inhibition of bacterial growth incubated for 18 to 24 hrs by broth microdilution assay; type: functional; conditions: time 18-24 hrs
Staphylococcus aureus [2] = assay: Antibacterial activity against Staphylococcus aureus ATCC 33591 assessed as inhibition of bacterial growth incubated for 18 to 24 hrs by broth microdilution assay; type: functional; conditions: time 18-24 hrs
Staphylococcus aureus [3] = assay: Antibacterial activity against Staphylococcus aureus SH-27 assessed as inhibition of bacterial growth incubated for 18 to 24 hrs by broth microdilution assay; type: functional; conditions: time 18-24 hrs
Staphylococcus aureus [4] = assay: Antibacterial activity against Staphylococcus aureus ATCC 43300 assessed as inhibition of bacterial growth incubated for 18 to 24 hrs by broth microdilution assay; type: functional; conditions: time 18-24 hrs
Staphylococcus aureus [5] = assay: Antibacterial activity against Staphylococcus aureus ATCC 29213 assessed as inhibition of bacterial growth incubated for 18 to 24 hrs by broth microdilution assay; type: functional; conditions: time 18-24 hrs
Salmonella enteritidis = assay: Antibacterial activity against Salmonella enteritidis SM012 assessed as inhibition of bacterial growth incubated for 18 to 24 hrs by broth microdilution assay; type: functional, Salmonella enterica subsp. enterica serovar Enteritidis; conditions: Salmonella enterica, time 18-24 hrs
L02 = assay: Cytotoxicity against human L02 cells assessed as reduction in cell viability at 25 ug/ml incubated for 72 hrs by CCK-8 assay; type: toxicity, cell-based; conditions: l02, 72 h, dose 25 µg/ml
A549 = assay: Cytotoxicity against human A549 cells assessed as reduction in cell viability at 25 ug/ml incubated for 72 hrs by CCK-8 assay; type: toxicity, cell-based; conditions: a549, 72 h, dose 25 µg/ml
[6] = Hemolytic activity in rabbit RBC assessed as hemolysis incubated for 1 hr by microtiter plate method; type: toxicity, cell-based, Oryctolagus cuniculus, Erythrocyte; conditions: red blood cells
Cell membrane [7] = assay: Induction of membrane depolarization in methicillin-resistant Staphylococcus aureus 2 at 5 x MIC incubated for 2 hrs by DiOC23 dye based based flow cytometry; type: subcellular
Staphylococcus aureus [8] = assay: Antibacterial activity against Staphylococcus aureus ATCC 29213 assessed as appearance of circular vesicles at 5 x MIC incubated for 2 hrs by transmission electron microscopy analysis; type: functional, organism-based
Staphylococcus aureus [9] = assay: Bactericidal activity against Staphylococcus aureus ATCC 29213 assessed as reduction in colony forming unit at 1 to 8 times MIC incubated for 18 to 24 hrs by time kill assay; type: functional, organism-based; conditions: time 18-24 hrs
Staphylococcus aureus [10] = assay: Antibacterial activity against Staphylococcus aureus ATCC 29213 assessed as cell wall loosening at 5 x MIC incubated for 2 hrs by transmission electron microscopy analysis; type: functional, organism-based
Staphylococcus aureus [11] = assay: Inhibition of biofilm formation in methicillin-resistant Staphylococcus aureus 2 at 4 to 16 microg/ml incubated for 18 to 24 hrs by crystal violet staining based assay; type: functional, organism-based; conditions: dose 4-16 µg/ml, time 18-24 hrs
Staphylococcus aureus [12] = assay: Antibacterial activity against Staphylococcus aureus ATCC 29213 assessed as separation of plasma wall at 5 x MIC incubated for 2 hrs by transmission electron microscopy analysis; type: functional, organism-based
Cell membrane [13] = assay: Induction of cell membrane permeability in Staphylococcus aureus ATCC 29213 at 5 x MIC incubated for 2 hrs by TO-PRO-3 reagent flow cytometry assay; type: subcellular
Staphylococcus aureus [14] = assay: Antibacterial activity against Staphylococcus aureus ATCC 29213 assessed as blurred space in cytoplasm and cell wall at 5 x MIC incubated for 2 hrs by transmission electron microscopy analysis; type: functional, organism-based
Staphylococcus aureus [15] = assay: Antibacterial activity against methicillin-resistant Staphylococcus aureus 2 assessed as blurred space in cytoplasm and cell wall at 5 x MIC incubated for 2 hrs by transmission electron microscopy analysis; type: functional, organism-based
Staphylococcus aureus [16] = assay: Antibacterial activity against methicillin-resistant Staphylococcus aureus 2 assessed as separation of plasma wall at 5 x MIC incubated for 2 hrs by transmission electron microscopy analysis; type: functional, organism-based
Staphylococcus aureus [17] = assay: Antibacterial activity against methicillin-resistant Staphylococcus aureus 2 assessed as cell wall loosening at 5 x MIC incubated for 2 hrs by transmission electron microscopy analysis; type: functional, organism-based
Staphylococcus aureus [18] = assay: Bactericidal activity against methicillin-resistant Staphylococcus aureus 2 assessed as reduction in colony forming unit at 1 to 8 times MIC incubated for 18 to 24 hrs by time kill assay; type: functional, organism-based; conditions: time 18-24 hrs
Cell membrane [19] = assay: Induction of membrane depolarization in Staphylococcus aureus ATCC 29213 at 5 x MIC incubated for 2 hrs by DiOC23 dye based based flow cytometry; type: subcellular
Cell membrane [20] = assay: Induction of cell membrane permeability in methicillin-resistant Staphylococcus aureus 2 at 5 x MIC incubated for 2 hrs by TO-PRO-3 reagent flow cytometry assay; type: subcellular
Staphylococcus aureus [21] = assay: Inhibition of biofilm formation in Staphylococcus aureus ATCC 29213 at 4 to 16 microg/ml incubated for 18 to 24 hrs by crystal violet staining based assay; type: functional, organism-based; conditions: dose 4-16 µg/ml, time 18-24 hrs
Staphylococcus aureus [22] = assay: Antibacterial activity against methicillin-resistant Staphylococcus aureus 2 assessed as appearance of circular vesicles at 5 x MIC incubated for 2 hrs by transmission electron microscopy analysis; type: functional, organism-based

SMILES | MIC (Escherichia coli) | MIC (Staphylococcus aureus [1]) | MIC (Staphylococcus aureus [2]) | MIC (Staphylococcus aureus [3]) | MIC (Staphylococcus aureus [4]) | MIC (Staphylococcus aureus [5]) | MIC (Salmonella enteritidis) | also measured
COc1cc2oc3cc(OC)c(OC)c(CC=C(C)C)c3c(=O)c2c(OC)c1CC=C(C)C | > 256 µg/mL | > 256 µg/mL | > 256 µg/mL | > 256 µg/mL | > 256 µg/mL | > 256 µg/mL | > 256 µg/mL | 
COc1c(O)cc2oc3cc(OC(=O)C(C)C)c(CC=C(C)C)c(O)c3c(=O)c2c1CC=C(C)C | > 256 µg/mL | > 256 µg/mL | > 256 µg/mL | > 256 µg/mL | > 256 µg/mL | > 256 µg/mL | > 256 µg/mL | 
C=CCOc1cc2oc3cc(O)c(CC=C(C)C)c(O)c3c(=O)c2c(CC=C(C)C)c1OC | > 256 µg/mL | > 256 µg/mL | 256 µg/mL (≈ 568 µM) | 2 µg/mL (≈ 4.44 µM) | 256 µg/mL (≈ 568 µM) | > 256 µg/mL | > 256 µg/mL | Activity (L02): Non-Toxic; Activity (A549): Non-Toxic; HC50 at 1 h [6]: 403 µg/mL
COc1c(O)cc2oc3cc(O)c(CC=C(C)C)c(O)c3c(=O)c2c1CC=C(C)C [MANGOSTIN] | > 256 µg/mL | 2 µg/mL (≈ 4.87 µM) | 1 µg/mL (≈ 2.44 µM) | 2 µg/mL (≈ 4.87 µM) | 1 µg/mL (≈ 2.44 µM) | 2 µg/mL (≈ 4.87 µM) | > 256 µg/mL | Activity (Cell membrane [7]): Active; Activity (L02): Non-Toxic; Activity (Staphylococcus aureus [8]): Active; Activity (Staphylococcus aureus [9]): Active; Activity (A549): Non-Toxic; Activity (Staphylococcus aureus [10]): Active; inhibition (Staphylococcus aureus [11]): Dose-Dependent Effect; Activity (Staphylococcus aureus [12]): Active; Activity (Cell membrane [13]): 100%; HC50 at 1 h [6]: 26.2 µg/mL; Activity (Staphylococcus aureus [14]): Active; Activity (Staphylococcus aureus [15]): Active; Activity (Staphylococcus aureus [16]): Active; Activity (Staphylococcus aureus [17]): Active; Activity (Staphylococcus aureus [18]): Active; Activity (Cell membrane [19]): Active; Activity (Cell membrane [20]): 100%; inhibition (Staphylococcus aureus [21]): Dose-Dependent Effect; Activity (Staphylococcus aureus [22]): Active
COc1c(OC(=O)C(C)C)cc2oc3cc(OC(=O)C(C)C)c(CC=C(C)C)c(O)c3c(=O)c2c1CC=C(C)C | > 256 µg/mL | > 256 µg/mL | > 256 µg/mL | > 256 µg/mL | > 256 µg/mL | > 256 µg/mL | > 256 µg/mL | 
C=CCOc1cc2oc3cc(OCC=C)c(OC)c(CC=C(C)C)c3c(=O)c2c(OC(=O)C(C)C)c1CC=C(C)C | > 256 µg/mL | > 256 µg/mL | > 256 µg/mL | > 256 µg/mL | > 256 µg/mL | > 256 µg/mL | > 256 µg/mL | 
C=CCOc1cc2oc3cc(OCC=C)c(OC)c(CC=C(C)C)c3c(=O)c2c(O)c1CC=C(C)C | > 256 µg/mL | > 256 µg/mL | > 256 µg/mL | > 256 µg/mL | > 256 µg/mL | > 256 µg/mL | > 256 µg/mL | 
COc1c(OCCCCCCO)cc2oc3cc(O)c(CC=C(C)C)c(O)c3c(=O)c2c1CC=C(C)C | > 256 µg/mL | > 256 µg/mL | > 256 µg/mL | > 256 µg/mL | > 256 µg/mL | > 256 µg/mL | > 256 µg/mL | 
COc1c(O)cc2c(c1CC=C(C)C)Cc1c(cc(O)c(CC=C(C)C)c1O)O2 | > 256 µg/mL | 16 µg/mL (≈ 40.4 µM) | 8 µg/mL (≈ 20.2 µM) | 8 µg/mL (≈ 20.2 µM) | 4 µg/mL (≈ 10.1 µM) | 16 µg/mL (≈ 40.4 µM) | > 256 µg/mL | Activity (L02): Non-Toxic; Activity (A549): Non-Toxic; HC50 at 1 h [6]: > 500 µg/mL
COc1c(O)cc2oc3cc4c(c(O)c3c(=O)c2c1CC=C(C)C)CCC(C)(C)O4 | > 256 µg/mL | 64 µg/mL (≈ 156 µM) | 32 µg/mL (≈ 78 µM) | 64 µg/mL (≈ 156 µM) | 64 µg/mL (≈ 156 µM) | 64 µg/mL (≈ 156 µM) | > 256 µg/mL | 
COc1c(O)cc2oc3cc(O)c(CCC(C)C)c(O)c3c(=O)c2c1CCC(C)C | > 256 µg/mL | 64 µg/mL (≈ 154 µM) | 64 µg/mL (≈ 154 µM) | 64 µg/mL (≈ 154 µM) | 32 µg/mL (≈ 77.2 µM) | 32 µg/mL (≈ 77.2 µM) | > 256 µg/mL | 
